In US20250064941A1, “SIGLEC LIGANDS, CONJUGATES, AND METHODS OF USE THEREOF” (Osprey Biopharmaceuticals, Inc., priority 2023, published 2025) one finds Kd data, which are given here for seven molecules.

Structures are written as SMILES.

In test [1] the target is T1, mouse Siglec-2-Fc-Avi (CD22) (Mus musculus, UniProt P35329).
T1 construct: made in house
T1 sequence (P35329 22-708 limits assumed): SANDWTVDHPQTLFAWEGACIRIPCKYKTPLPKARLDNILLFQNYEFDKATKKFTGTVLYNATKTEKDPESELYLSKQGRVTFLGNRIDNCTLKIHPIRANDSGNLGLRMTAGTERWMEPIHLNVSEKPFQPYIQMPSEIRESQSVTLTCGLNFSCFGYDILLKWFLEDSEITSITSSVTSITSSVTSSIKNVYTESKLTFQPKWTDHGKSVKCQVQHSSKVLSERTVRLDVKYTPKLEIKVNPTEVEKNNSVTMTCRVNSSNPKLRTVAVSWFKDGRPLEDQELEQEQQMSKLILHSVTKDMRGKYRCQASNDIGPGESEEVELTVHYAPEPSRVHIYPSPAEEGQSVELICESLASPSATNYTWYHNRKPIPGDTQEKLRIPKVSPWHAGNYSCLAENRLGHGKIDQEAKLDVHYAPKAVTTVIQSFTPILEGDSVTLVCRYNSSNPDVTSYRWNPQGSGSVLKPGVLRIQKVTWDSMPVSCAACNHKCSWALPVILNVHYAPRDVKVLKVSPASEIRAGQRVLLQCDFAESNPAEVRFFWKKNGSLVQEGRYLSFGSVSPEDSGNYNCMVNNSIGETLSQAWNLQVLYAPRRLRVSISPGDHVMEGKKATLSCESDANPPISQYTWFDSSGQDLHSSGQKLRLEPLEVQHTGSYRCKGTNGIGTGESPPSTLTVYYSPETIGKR
Briefly: SPR binding affinity to mouse CD22. Particulars: steady-state analysis. On the procedure: (§1) Prior to immobilization, CD22 proteins were treated with SialoExo (Genovis, Cat #G1-SM1-020) for 4 hours at 37° C. to remove native sialic acid residues.
(§2) Capture of biotinylated CD22 constructs was performed using a Cytiva SA chip (BR100398) on a Biacore 8K instrument.
(§3) Binding experiments of Siglec-ligand conjugated proteins or Siglec ligand compounds were performed on the surfaces prepared above in 10 mM HEPES, 150 mM NaCl, 0.05% Tween-20, pH 7.5, 1% DMSO as the running buffer. […] The compounds were then allowed to dissociate from the surface for 120 seconds. […] Solvent correction was performed using 0.5, 1, 1.5, and 2% DMSO spike into running buffer without DMSO. […] Data was analyzed using steady-state analysis in Biacore Insight Evaluation Software, version 3.0 for Siglec ligand compounds.
A general note: SPR reads the build-up and loss of mass on a sensor chip optically.

In test [2] the target is T2, human Siglec-2/CD22 protein (Homo sapiens, UniProt P20273).
T2 construct: purchased Acro Biosystems SI2-H82E3
T2 sequence (P20273 20-847): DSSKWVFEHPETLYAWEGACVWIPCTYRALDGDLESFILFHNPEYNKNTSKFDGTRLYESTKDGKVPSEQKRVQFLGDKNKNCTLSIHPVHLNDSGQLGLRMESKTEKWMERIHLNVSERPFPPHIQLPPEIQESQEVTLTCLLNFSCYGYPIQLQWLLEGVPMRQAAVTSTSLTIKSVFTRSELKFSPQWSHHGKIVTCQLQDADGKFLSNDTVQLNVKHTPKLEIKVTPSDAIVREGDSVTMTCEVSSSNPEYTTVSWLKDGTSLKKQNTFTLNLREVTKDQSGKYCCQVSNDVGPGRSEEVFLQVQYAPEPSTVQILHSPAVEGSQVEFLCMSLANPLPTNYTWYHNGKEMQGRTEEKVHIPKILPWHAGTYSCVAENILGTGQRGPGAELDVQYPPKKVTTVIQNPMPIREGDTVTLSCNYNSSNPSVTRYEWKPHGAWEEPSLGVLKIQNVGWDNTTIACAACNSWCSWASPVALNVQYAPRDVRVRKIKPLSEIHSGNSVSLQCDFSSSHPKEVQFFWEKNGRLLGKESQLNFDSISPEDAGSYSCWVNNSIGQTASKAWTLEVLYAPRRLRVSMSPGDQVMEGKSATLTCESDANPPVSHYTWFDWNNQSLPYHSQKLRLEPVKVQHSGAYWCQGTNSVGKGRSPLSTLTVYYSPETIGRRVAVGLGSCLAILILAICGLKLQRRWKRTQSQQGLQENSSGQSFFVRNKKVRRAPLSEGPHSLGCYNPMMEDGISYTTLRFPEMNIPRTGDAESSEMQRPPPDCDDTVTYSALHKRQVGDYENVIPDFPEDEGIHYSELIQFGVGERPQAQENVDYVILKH
In words: SPR binding affinity to human CD22. The following applies: steady-state analysis. As to the method: as §1, §2, §3

For a further test, the target named is cynomolgus Siglec-2/CD22 (Macaca fascicularis, UniProt A0A2K5WCZ6). Briefly: biochemical. The following applies: SPR, steady-state analysis; read-out: Affinity cyno CD22. In kind it is binding. As to the method: as §1
Surface preparation for cyno CD22 protein consisted of amine coupling to Cytiva CM5 chip (Cytiva, Cat #BR100530) using the Cytiva amine coupling kit Type 2 (Cytiva, Cat #BR100633). Following the standard amine coupling protocols, EDC and NHS from the kit were mixed 1:1 and injected over flow cells 1 and 2. […] Any active carboxy groups were then capped with 1M Ethanolamine, pH 8.5 for 420s on flow cells 1 and 2.
as §3

Chain of cynomolgus Siglec-2/CD22 (A0A2K5WCZ6 entry or part of it): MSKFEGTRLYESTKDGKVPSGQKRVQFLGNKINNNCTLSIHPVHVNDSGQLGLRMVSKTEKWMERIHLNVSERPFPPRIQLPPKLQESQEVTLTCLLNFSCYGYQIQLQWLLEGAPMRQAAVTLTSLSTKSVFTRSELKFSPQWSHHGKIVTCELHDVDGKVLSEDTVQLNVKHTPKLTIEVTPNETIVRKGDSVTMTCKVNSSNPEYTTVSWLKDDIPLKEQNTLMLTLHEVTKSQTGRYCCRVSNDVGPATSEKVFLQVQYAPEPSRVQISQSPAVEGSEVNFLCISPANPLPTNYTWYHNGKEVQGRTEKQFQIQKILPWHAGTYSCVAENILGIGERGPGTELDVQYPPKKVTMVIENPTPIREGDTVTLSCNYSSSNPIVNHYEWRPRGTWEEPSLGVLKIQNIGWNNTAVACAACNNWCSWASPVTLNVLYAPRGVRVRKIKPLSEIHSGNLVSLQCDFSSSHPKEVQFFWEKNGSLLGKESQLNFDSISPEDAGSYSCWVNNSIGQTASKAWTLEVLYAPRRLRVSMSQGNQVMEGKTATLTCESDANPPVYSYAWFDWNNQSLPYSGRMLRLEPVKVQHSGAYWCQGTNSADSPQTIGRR

As to `C#CCOCCNC(=O)CCCCCCO[C@]1(C(=O)O)C[C@H](O)[C@@H](NC(=O)CO)[C@H]([C@H](O)[C@H](O)CNC(=O)Cc2ccc(C(F)F)cc2)O1` [Compound 213, (2R,4S,5R,6R)-6-((1R,2R)-3-(2-(4-(difluoromethyl)phenyl)acetamido)-1,2-dihydroxypropyl)-4-hydroxy-5-(2-hydroxyacetamido)-2-((7-oxo-7-((2-(prop-2-yn-1-yloxy)ethyl)amino)heptyl)oxy)tetrahydro-2H-pyran-2-carboxylic acid], the Kd (in test [1]; in test [2]; on cynomolgus Siglec-2/CD22) was less than 1000 nM in each case.

For `O=C(O)CCOCCOCCOCCOCCNc1c(NCCCCCCO[C@]2(C(=O)O)C[C@H](O)[C@@H](NC(=O)CO)[C@H]([C@H](O)[C@H](O)CNC(=O)Cc3ccc(Cl)cc3)O2)c(=O)c1=O` [Compound 154, (2R,4S,5R,6R)-2-((6-((2-((14-carboxy-3,6,9,12-tetraoxa-tetradecyl)amino)-3,4-dioxocyclobut-1-en-1-yl)amino)hexyl)oxy)-6-((1R,2R)-3-(2-(4-chlorophenyl)acetamido)-1,2-dihydroxypropyl)-4-hydroxy-5-(2-hydroxyacetamido) tetrahydro-2H-pyran-2-carboxylic acid], the Kd (in test [1]; in test [2]; on cynomolgus Siglec-2/CD22) was less than 1000 nM each time.

Consider `C#Cc1ccc(CO[C@]2(C(=O)O)C[C@H](O)[C@@H](NC(=O)CO)[C@H]([C@H](O)[C@H](O)CNC(=O)Cc3ccc(Cl)cc3)O2)cc1` [Compound 114, (2R,4S,5R,6R)-6-((1R,2R)-3-(2-(4-chlorophenyl)acetamido)-1,2-dihydroxypropyl)-2-((4-ethynylbenzyl)oxy)-4-hydroxy-5-(2-hydroxyacetamido)tetrahydro-2H-pyran-2-carboxylic acid], for which the Kd (in test [1]; in test [2]; on cynomolgus Siglec-2/CD22) was less than 1000 nM in each case.

As to `C#CCOCCOCCO[C@]1(C(=O)O)C[C@H](O)[C@@H](NC(=O)CO)[C@H]([C@H](O)[C@H](O)CNC(=O)Cc2ccc(-c3ccncc3)cc2)O1` [Compound 72, (2R,4S,5R,6R)-6-((1R,2R)-1,2-dihydroxy-3-(2-(4-(pyridin-4-yl)phenyl)acetamido)propyl)-4-hydroxy-5-(2-hydroxyacetamido)-2-(2-(2-(prop-2-yn-1-yloxy)ethoxy)ethoxy)tetrahydro-2H-pyran-2-carboxylic acid], the Kd in test [2] is 1000 to 10000 nM; on cynomolgus Siglec-2/CD22, greater than 10000 nM.

For `C#CCOCCOCCO[C@]1(C(=O)O)C[C@H](O)[C@@H](NC(=O)CO)[C@H]([C@H](O)[C@H](O)CNC(=O)Cc2ccc3c(c2)NC(=O)C3)O1` [Compound 12, (2R,4S,5R,6R)-6-((1R,2R)-1,2-dihydroxy-3-(2-(2-oxoindolin-6-yl)acetamido)propyl)-4-hydroxy-5-(2-hydroxyacetamido)-2-(2-(2-(prop-2-yn-1-yloxy)ethoxy)ethoxy)tetrahydro-2H-pyran-2-carboxylic acid], the values for the Kd (in test [2]; on cynomolgus Siglec-2/CD22) were 1000 to 10000 nM and greater than 10000 nM, respectively.

On to `C#CCOCCCCCCO[C@]1(C(=O)O)C[C@H](O)[C@@H](NC(=O)CO)[C@H]([C@H](O)[C@H](O)CNC(=O)Cc2ccc(-c3ccc(NC(C)=O)cc3)cc2)O1` [Compound 204, (2R,4S,5R,6R)-6-((1R,2R)-3-(2-(4′-acetamido-[1,1′-biphenyl]-4-yl)acetamido)-1,2-dihydroxypropyl)-4-hydroxy-5-(2-hydroxyacetamido)-2-((6-(prop-2-yn-1-yloxy)hexyl)oxy)tetrahydro-2H-pyran-2-carboxylic acid], for which the Kd in test [1] and in test [2] was less than 1000 nM each time.

For the molecule `C#CCCOc1ccc(CO[C@]2(C(=O)O)C[C@H](O)[C@@H](NC(=O)CO)[C@H]([C@H](O)[C@H](O)CNC(=O)Cc3ccc(N4CCOCC4)cc3)O2)cc1` [Compound 139, (2R,4S,5R,6R)-2-((4-(but-3-yn-1-yloxy)benzyl)oxy)-6-((1R,2R)-1,2-dihydroxy-3-(2-(4-morpholinophenyl)acetamido)propyl)-4-hydroxy-5-(2-hydroxyacetamido)tetrahydro-2H-pyran-2-carboxylic acid], the Kd in test [1] was less than 1000 nM; in test [2], 1000 to 10000 nM.
